Experiment [1] addresses T1, Arginase-1 (Homo sapiens, UniProt P05089).
T1 sequence (P05089 whole entry): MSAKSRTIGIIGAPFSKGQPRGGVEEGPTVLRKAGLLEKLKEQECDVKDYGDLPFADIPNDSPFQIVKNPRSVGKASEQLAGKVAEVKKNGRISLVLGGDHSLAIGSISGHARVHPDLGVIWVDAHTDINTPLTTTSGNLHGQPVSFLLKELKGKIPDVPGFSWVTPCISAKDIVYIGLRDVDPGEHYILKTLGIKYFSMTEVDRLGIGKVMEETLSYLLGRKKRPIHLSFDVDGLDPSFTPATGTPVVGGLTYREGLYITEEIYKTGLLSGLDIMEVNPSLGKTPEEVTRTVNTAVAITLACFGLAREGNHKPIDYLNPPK
Briefly: (§1) Displacement of [14C-guanidino]-L-arginine from human recombinant full length arginase 1 expressed in Escherichia coli BL21(DE3) by fixed point assay.

Experiment [2] has as its target Histone deacetylase 4 (Homo sapiens, UniProt P56524). Briefly: Inhibition of human HDAC4 catalytic domain (residues Thr648-Thr1057) expressed in Escherichia coli BL21using fluorogenic substrate by fluorescence assay.
The target in experiment [3] is T2, Arginase-1 (Homo sapiens) (UniProt P05089).
T2 sequence (whole entry): T1 sequence (P05089 whole entry)
The description is as §1.

Experiment [4] can be described thus: Ratio of IC50 for Mycoplana ramosa acetylpolyamine amidohydrolase to IC50 for HDAC8.

Here are results for three compounds from ChEMBL document CHEMBL1833881, “Synthesis of a new trifluoromethylketone analogue of l-arginine and contrasting inhibitory activity against human arginase I and histone deacetylase 8” (Bioorg Med Chem Lett, 2011).

Molecules are shown by their SMILES. The source made the active and inactive calls. The calls are words filed in the database; no cut-off is given here.

Sequence of Histone deacetylase 4 (P56524 whole entry, the tested form may be a part): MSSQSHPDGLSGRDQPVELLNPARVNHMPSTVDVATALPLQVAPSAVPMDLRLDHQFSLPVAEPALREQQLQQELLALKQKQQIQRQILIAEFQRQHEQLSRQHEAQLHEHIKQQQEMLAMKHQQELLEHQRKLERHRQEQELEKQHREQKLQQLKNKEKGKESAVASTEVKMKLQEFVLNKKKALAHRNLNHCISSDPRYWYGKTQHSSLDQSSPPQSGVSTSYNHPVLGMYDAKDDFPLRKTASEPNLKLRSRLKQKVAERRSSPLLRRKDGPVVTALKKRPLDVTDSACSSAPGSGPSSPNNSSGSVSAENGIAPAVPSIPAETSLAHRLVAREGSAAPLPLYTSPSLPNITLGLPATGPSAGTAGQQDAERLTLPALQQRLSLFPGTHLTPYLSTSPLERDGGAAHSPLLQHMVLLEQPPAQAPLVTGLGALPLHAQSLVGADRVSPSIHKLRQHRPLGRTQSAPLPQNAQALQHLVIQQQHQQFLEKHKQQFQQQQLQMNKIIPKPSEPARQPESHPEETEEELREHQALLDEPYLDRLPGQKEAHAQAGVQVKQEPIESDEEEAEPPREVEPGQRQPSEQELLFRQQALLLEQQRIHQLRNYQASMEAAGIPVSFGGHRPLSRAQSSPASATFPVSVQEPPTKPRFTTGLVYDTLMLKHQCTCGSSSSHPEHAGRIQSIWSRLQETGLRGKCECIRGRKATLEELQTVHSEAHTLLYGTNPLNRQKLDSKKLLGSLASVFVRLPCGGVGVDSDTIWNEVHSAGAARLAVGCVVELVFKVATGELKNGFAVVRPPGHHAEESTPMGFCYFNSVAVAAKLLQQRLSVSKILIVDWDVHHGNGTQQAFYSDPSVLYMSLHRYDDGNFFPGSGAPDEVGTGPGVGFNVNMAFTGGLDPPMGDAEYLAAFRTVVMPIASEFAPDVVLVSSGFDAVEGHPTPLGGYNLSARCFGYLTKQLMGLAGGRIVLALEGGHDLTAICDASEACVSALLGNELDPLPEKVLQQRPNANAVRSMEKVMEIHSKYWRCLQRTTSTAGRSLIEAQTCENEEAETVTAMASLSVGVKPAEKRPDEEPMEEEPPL

In general, Kd refers to a measure of binding affinity in units of concentration. In the case of `N[C@@H](CCCCC=O)C(=O)O`, in experiment [1], the Kd worked out at 60 µM.

What is called IC50 is the midpoint of a concentration-inhibition curve. A lower IC50 goes with higher potency. Compound `O=C(c1ccc(C(=O)C(F)(F)F)s1)N1CCn2c(-c3ccccc3)cnc2C1` registered a half-inhibitory concentration (IC50) in experiment [2] of 0.367 µM. For `N[C@@H](CCCCC(=O)C(F)(F)F)C(=O)O`, in experiment [3], the inhibition entry is “inactive”. Further, the Ratio IC50 in experiment [4] stood at 73.
